Experimental data reported in article PMC3466060 (2011).

System: 3′-Fl-AM1A-(18)-Rhd (RNA, riboswitch) GAGGGUGGAACCGCGCUUCGGCGUCCCUC
Test: FRET binding titration
Conditions: 50 mM NaCl, 5 mM MgCl2

A Kd of over 100 µM was found for `O=C(Cc1ccccc1)OCC1OC(=O)NC1CN1CCN(c2ccccc2)CC1` (racemic) in this work.
